Laboratory results as given in paper PMC2074783, “Metabolism and pharmacokinetics of the anti-tumour agent 2,3,5-trimethyl-6-(3-pyridylmethyl)1,4-benzoquinone (CV-6504)” (British Journal of Cancer, 1996).

Assays:
MAC13 tumour = test: Growth of the MAC13 tumour in vivo; parameters: species or system NMRI mice; conditions: 50 mg kg-1 daily p.o.; for Anti-tumour activity in comparison with the 1-glucuronide and 4-sulphate: MAC13 tumour, difference not significant
Excerpt: (§1) Bridsh Journal of Cancer (1996) 74, 1349-1353 ? 1996 Stockton Press All rights reserved 0007-0920/96 $12.00 Metabolism and pharmacokinetics of the anti-tumour agent 2,3,5- trimethyl-6-(3-pyridylmethyl) 1,4-benzoquinone (CV-6504) H J Hussey and M J Tisdale Pharmaceutical Sciences Institute, Aston University, Birmingham B4 7ET, UK. Summary 2,3,5-Trimethyl-6-(3-pyridylmethyl)1,4-benzoquinone (CV-6504) is an effective inhibitor of the growth of established murine adenocarcinomas (MACs) and is shortly to enter clinical investigation. When administered to mice bearing the MAC16 tumour, CV-6504 rapidly disappeared from the plasma and tissues and there was an accumulation of the sulphate and glucuronide metabolites. […] The concentration of glucuronide and sulphate metabolites in both tumour and liver decreased with time. […] Although the sulphate and glucuronide conjugates of CV-6504 were ineffective inhibitors of the growth of MAC13 cells in vitro at concentrations up to 100 µM, in vivo at a concentration of 50 mg kg-' day-' the conjugates produced a similar anti-tumour effect to CV-6504 at a concentration of 5 mg kg-} day-l. […] Using MAC13 cells ex vivo, CV-6504 inhibited conversion of arachidonic acid to 5-, 12- and 15- hydroxyeicosatetraenoic acids (HETE). The percentage reduction in formation of 12- and 15-HETE exceeded that of 5-HETE. Inhibition of HETE formation may be responsible for the anti-tumour activity of CV-6504. […] Our own studies have identified the 5-lipoxygenase inhibitor (Ohkawa et al., 1991a), 2,3,5-trimethyl-6-(3-pyridyl- methyl)1,4-benzoquinone (CV-6504), as an effective inhibitor of the growth of established murine adenocarcinomas (MAC) in vivo with a therapeutic index of at least 10 (Hussey et al., 1996). […] CV-6504 undergoes rapid reduction by two-electron donating enzymes, such as DT-diaphorase, and the resulting hydroquinone inhibits both 5-lipoxygenase activity and lipid peroxidation on the basis of its antioxidant ability (Ohkawa et al., 199 lb) by reducing the ferric iron in the active site of the enzyme to the ferrous (resting state). Studies on the metabolism of CV-6504 by mice, rats, dogs and monkeys indicate reduction of the quinone ring and subsequent conjugation to yield the 1- and 4-glucuronides and the corresponding sulphates (Takeda Chemical Co., personal communication). […] In the present study the tumour and tissue levels of CV- Correspondence: HJ Hussey Received 4 March 1996; revised 21 May 1996; accepted 29 May 1996 6504 and its glucuronide and sulphate metabolites have been determined after single and consecutive dosing of mice bearing the MAC16 adenocarcinoma. A comparison has also been made between CV-6504 and its glucuronide and sulphate metabolites on tumour growth and metabolism of AA along the lipoxygenase pathways with a view to establishing the mechanism of the anti-tumour effect. Material and methods Pure strain NMRI mice were obtained from our own breeding colony and were fed a rat and mouse breeding diet (Pilsbury's, Birmingham) and water ad libitum. Male animals weighing 20-25 g were transplanted subcutaneously with 1-2 mm3 fragments of the MAC16 or MAC13 tumours by trocar into the right flank. The experiments were initiated when the tumour volume, calculated from the formula: length x (width)2 2 was between 72 and 128 mm3. Tumour dimensions were measured by calipers. Mice bearing the MAC13 tumour were subject to restricted randomisation into groups of nine to receive either CV-6504 (5 mg kg-') or the 1- or 4- glucuronide, or the 1- or 4-sulphate (50 mg kg-'). CV-6504 and the sulphate and glucuronide metabolites were supplied by Takeda Chemical Industries Ltd., Osaka, Japan and were administered p.o. daily in aqueous solution (0.1 ml). Control animals received water alone (0.1 ml). […]

MAC13 cells = test: Growth of MAC13 cells in vitro after 72 h; assay type: cell-based, murine; conditions: for Inhibition of the growth of MAC13 cells in vitro: concentrations up to 100 µM, 72 h
Excerpt: as §1, with “calipers.” for “calipers. Mice bearing the MAC13 tumour were subject to restricted randomisation into groups of nine to receive either CV-6504 (5 mg kg-') or the 1- or 4- glucuronide, or the 1- or 4-sulphate (50 mg kg-'). CV-6504 and the sulphate and glucuronide metabolites were supplied by Takeda Chemical Industries Ltd., Osaka, Japan and were administered p.o. daily in aqueous solution (0.1 ml). Control animals received water alone (0.1 ml).”

[1] = Metabolism and tissue levels of [14C]CV-6504 in mice bearing the MAC16 tumour; conditions: male, NMRI, mouse, in vivo, 24 h
Excerpt: Bridsh Journal of Cancer (1996) 74, 1349-1353 ? 1996 Stockton Press All rights reserved 0007-0920/96 $12.00 Metabolism and pharmacokinetics of the anti-tumour agent 2,3,5- trimethyl-6-(3-pyridylmethyl) 1,4-benzoquinone (CV-6504) H J Hussey and M J Tisdale Pharmaceutical Sciences Institute, Aston University, Birmingham B4 7ET, UK. Summary 2,3,5-Trimethyl-6-(3-pyridylmethyl)1,4-benzoquinone (CV-6504) is an effective inhibitor of the growth of established murine adenocarcinomas (MACs) and is shortly to enter clinical investigation. When administered to mice bearing the MAC16 tumour, CV-6504 rapidly disappeared from the plasma and tissues and there was an accumulation of the sulphate and glucuronide metabolites. […] The concentration of glucuronide and sulphate metabolites in both tumour and liver decreased with time. […] In the present study the tumour and tissue levels of CV- Correspondence: HJ Hussey Received 4 March 1996; revised 21 May 1996; accepted 29 May 1996 6504 and its glucuronide and sulphate metabolites have been determined after single and consecutive dosing of mice bearing the MAC16 adenocarcinoma. […] The experiments were initiated when the tumour volume, calculated from the formula: length x (width)2 2 was between 72 and 128 mm3. Tumour dimensions were measured by calipers. […]

[2] = system: conversion of arachidonic acid to HETEs in MAC13 cells; test: Lipoxygenase metabolites of arachidonate in MAC13 tumour cells ex vivo; assay type: cell-based, murine
Excerpt: as §1

MAC16 cells = test: Inhibition of the growth of MAC16 cells in vitro; assay type: cell-based, murine; conditions: Mus musculus, tissue culture

For `Cc1c(C)c(OS(=O)(=O)O)c(C)c(Cc2cccnc2)c1O` [4-sulphate], the “Anti-tumour activity against MAC13 tumour in vivo compared with free CV-6504 at 5 mg kg-1 day-1 orally” value (MAC13 tumour) was “similar” and the “Inhibition of the growth of MAC13 cells in vitro” value (from here on “Inhibition”) (MAC13 cells) was “ineffective”.
With `CC1=C(C)C(=O)C(Cc2cccnc2)=C(C)C1=O` [CV-6504, 2,3,5-Trimethyl-6-(3-pyridylmethyl)1,4-benzoquinone] the “concentration of free CV-6504 in the liver” value [1] was 240 nM, the “concentration of free CV-6504 in the tumour” value [1] was 3300 nM and the “percentage reduction in formation of 12- and 15-HETE relative to that of 5-HETE” value ([2]; 10 µM, 30 min) was “exceeded”. The 5-HETE production ([2]; 10 µM, 30 min, [3H]AA) was “significantly decreased”, the 11-HETE production ([2]; 10 µM, 30 min, [3H]AA) was “significantly decreased” and the 12-HETE production ([2]; 10 µM, 30 min, [3H]AA) was “significantly decreased”. For the same molecule, the 15-HETE production ([2]; 10 µM, 30 min, [3H]AA) was “significantly decreased”, the “total unmetabolised AA” value ([2]; 10 µM, 30 min, [3H]AA) was “significantly decreased” and the IC50 (MAC13 cells; Mus musculus, MAC13, 72 h, read-out: IC50 for inhibition of growth of MAC13 cells in vitro) was 3000 nM. For the same molecule, the IC50 (MAC16 cells) was 3000 nM.
In the case of `Cc1c(C)c(OC2OC(C(=O)O)C(O)C(O)C2O)c(Cc2cccnc2)c(C)c1O` (stereo not shown) [CV-6504-1-glucuronide], the “Anti-tumour activity against MAC13 tumour in vivo compared with free CV-6504 at 5 mg kg-1 day-1 orally” value (MAC13 tumour) is reported as “similar” and the “Inhibition” value (MAC13 cells) is reported as “ineffective”.
With `Cc1c(C)c(OS(=O)(=O)O)c(Cc2cccnc2)c(C)c1O` [CV-6504-1-sulphate] the “Anti-tumour activity against MAC13 tumour in vivo compared with free CV-6504 at 5 mg kg-1 day-1 orally” value (MAC13 tumour) was “similar”, the “Anti-tumour activity in comparison with the 1-glucuronide and 4-sulphate” value (MAC13 tumour) was “slightly reduced” and the 12-HETE production ([2]; 100 µM, 30 min) was “significantly reduced”. The 15-HETE production ([2]; 100 µM, 30 min) was “significantly reduced”, the 11-HETE production ([2]; 100 µM, 1 h) was “significantly reduced” and the 5-HETE production ([2]; 100 µM, 2 h) was “significantly reduced”. For the same molecule, the “Inhibition” value (MAC13 cells) was “ineffective”.
In the case of `Cc1c(C)c(OC2OC(C(=O)O)C(O)C(O)C2O)c(C)c(Cc2cccnc2)c1O` (stereo not shown) [CV-6504-4-glucuronide], the “Anti-tumour activity against MAC13 tumour in vivo compared with free CV-6504 at 5 mg kg-1 day-1 orally” value (MAC13 tumour) is reported as “similar”, the “Anti-tumour activity in comparison with the 1-glucuronide and 4-sulphate” value (MAC13 tumour) is reported as “slightly reduced” and the 5-HETE production ([2]; 100 µM, 30 min) is reported as “significantly reduced”. The 11-HETE production ([2]; 100 µM, 30 min) was “significantly reduced”, the 12-HETE production ([2]; 100 µM, 30 min) was “significantly reduced” and the 15-HETE production ([2]; 100 µM, 1 h) was “significantly reduced”. For the same molecule, the “Inhibition” value (MAC13 cells) was “ineffective”.
